The text below walks through data of patent publication US20070021509A1, “Phosphate transport inhibitors” (priority 2001, published 2007).

The test system of the first test is phosphate uptake by rabbit intestinal Brush Border Membrane Vesicles (BBMV). Put plainly: 33PO4 uptake in rabbit intestinal BBMV (HTS), phosphate transporter inhibition in vitro. The test is classed as biochemical. Particulars: Table 1, phosphate uptake, read-out: IC50. On the procedure: The following example outlines the procedures required for in vitro measurement of the inhibition of phosphate uptake by rabbit intestinal Brush Border Membrane Vesicles (BBMV).
Rabbit Intestinal Brush Border Membrane Vesicles (BBMV) were isolated from mucosal scrapings of the upper small intestine (duodenum) of male New Zealand White rabbits. The scrapings were divided into 2 g aliquots in cryopreservation vials, frozen in liquid nitrogen, and stored at −80° C.
The following procedure was performed for each 2 g sample of BBMV mucosal scraping. Buffer volumes and container sizes were adjusted appropriately for the number of 2 g samples used. The entire preparation was performed on ice, unless otherwise stated.
Mucosal scrapings (2 g per tube) were thawed in a 37° C. water bath for 3 minutes and then placed on ice. The scrapings were suspended with a total of 7.5 ml of 300 MET, and transferred to a 250 mL Corning tube on ice. To the suspension was added 30 mL cold (4° C.) deionized water (dH20). The suspension was homogenized with a tissue homogenizer (Polytron) on high speed for 2 minutes. A stir bar and MgCl2 (81.3 mg) was added. The suspension was mixed well by inverting the closed tube. The suspension was stirred on ice, ensuring that a good vortex is achieved with the stir bar, for 40 minutes. The suspension was transferred to a chilled centrifuge tube and spun at 4000×g for 15 minutes. The supernatant was transferred to a new chilled centrifuge tube and spun at 32000×g for 30 minutes. The supernatant was discarded and the pellet was re-suspended with 34 mL cold 60 MET. The suspension was homogenized with a Dounce homogenizer with 8 strokes. The suspension was transferred to a fresh 250 mL Corning tube. A stir bar and 69.1 mg MgCl2 were added. The suspension was stirred well on ice for 10 minutes. The suspension was transferred to a chilled centrifuge tube and spun at 4000×g for 15 minutes. The supernatant was transferred to a new chilled centrifuge tube and spun at 32000×g for 30 minutes. The supernatant was discarded. At this stage, the preparation could be continued or this pellet (P4) could be frozen in liquid nitrogen and stored at −80° C. When needed, this pellet could be allowed to thaw at room temperature for 5 minutes. Continuing the preparation, the pellet was re-suspended with 34 mL cold 280 MH. The suspension was homogenized in a Dounce homogenize with 8 strokes. The suspension was transferred to a new chilled centrifuge tube and spun at 32000×g for 30 minutes. The supernatant was discarded. To the pellet was added 500 μL 280 MH and the pellet was re-suspended very carefully with a 1 mL tuberculin syringe with a 25-gauge needle with care not to create bubbles. Once the entire pellet was suspended, the suspension was transferred to a chilled 1.5 mL microfuge tube. The suspension was evenly dispersed by bringing the suspension up into the syringe through the 25-gauge needle, and back out again 8 times with care not to create bubbles. The total protein concentration was determined by performing a Bradford Protein Assay. Using that value, the BBMV were diluted with 280 MH to reach approximately 0.5-2.0 mg/mL. The solution was used as soon as possible for uptake studies.
The following experiment was performed using a Beckman Multimek 96-tip robotic pipettor. The following outlines the preparation required to screen one 96-well plate of compounds. However, multiple plates could be screened in one experiment.
To the “Uptake Buffers” was added ^33PO4 to reach 200,000 CPM/19 μL. The buffer solutions were stored at room temperature. The following control solutions were prepared and placed into appropriate wells of a polypropylene, 96-well V-bottom plate (“Hot Stock Plate”):
a. Maximum activity (MAX)−Na Uptake buffer+^33PO4 at 200,000 CPM/19 μL
b. Midline activity (MID)−MAX+100 μM KH2PO4, pH 7.4
c. Minimum activity (MIN)− K Uptake buffer+^33PO4 at 200,000 CPM/19 μL
A word on the IC50: it is the concentration that inhibits the measured activity by half. Consider `O=C(O)c1cc(Br)ccc1NS(=O)(=O)c1ccc(Cl)c([N+](=O)[O-])c1` [Compound 40], for which the IC50 is over 1500 µM.
On the same count and under the same terms, next, `O=C(O)c1cc(Br)ccc1NS(=O)(=O)c1ccc(O)c([N+](=O)[O-])c1` [Compound 44]: over 1500 µM; `O=C(O)c1cc(Br)ccc1NS(=O)(=O)c1ccc(-c2ccccc2)cc1` [Compound 1]: under 50 µM; `COc1ccc(S(=O)(=O)Nc2ccc(Br)cc2C(=O)O)cc1[N+](=O)[O-]` [Compound 42]: over 1500 µM.
The same measure, in the same setting: next, `COc1ccc(OC)c(S(=O)(=O)Nc2ccc(Br)cc2C(=O)O)c1` [Compound 35]: 101 to 500 µM.

Still in this test, the particulars now being: Table 2, phosphate uptake, read-out: IC50.
Turning to `O=C(NCc1ccccc1C(F)(F)F)c1cc(Br)ccc1NS(=O)(=O)c1ccc(OC(F)(F)F)cc1` [Compound 55], the IC50 is under 50 µM.
The same measure, in the same setting: in the case of `COc1ccc(S(=O)(=O)Nc2ccc(Br)cc2C(=O)Nc2cccc(Cl)c2C)cc1[N+](=O)[O-]` [Compound 100] it was 51 to 100 µM.
On the same count and under the same terms, next, `O=C(Nc1cccc(Cl)c1)c1cc(Br)ccc1NS(=O)(=O)c1ccc(OC(F)(F)F)cc1` [Compound 78]: 101 to 500 µM; `Cc1cc(Br)ccc1NC(=O)c1cc(Br)ccc1NS(=O)(=O)c1ccc(OC(F)(F)F)cc1` [Compound 84]: 1000 to 1500 µM; `O=C(Nc1ccccc1F)c1cc(Br)ccc1NS(=O)(=O)c1ccc(Cl)cc1` [Compound 88]: 101 to 500 µM.
Consider `COc1ccccc1NC(=O)c1cc(Br)ccc1NS(=O)(=O)c1ccc(Cl)c([N+](=O)[O-])c1` [Compound 117], for which the IC50 lay within 101 to 500 µM.

The same test, now with this note: Table 3, 100 μM compound.
In the case of `O=S(=O)(Nc1ccccn1)c1ccc(OC(F)(F)F)cc1` [Compound 168], the “% Inhib. At 100 μM” value came to 16%.
Take `CN(C)c1ccc(NS(=O)(=O)c2cc(C(F)(F)F)cc(C(F)(F)F)c2)cc1` [Compound 130]: the “% Inhib. At 100 μM” value is given as 81%.
`O=S(=O)(Nc1ccccc1NS(=O)(=O)c1cc(C(F)(F)F)cc(C(F)(F)F)c1)c1cc(C(F)(F)F)cc(C(F)(F)F)c1` [Compound 176]: the “% Inhib. At 100 μM” value amounted to 36%.
In the case of `O=C(Nc1ccccc1Cl)c1cc(Br)ccc1NS(=O)(=O)c1ccc(Cl)cc1` [Compound 173], the “% Inhib. At 100 μM” value is recorded as 95%.
Consider `Cc1ccc(NS(=O)(=O)c2ccc(OC(F)(F)F)cc2)cc1` [Compound 142], for which the “% Inhib. At 100 μM” value was determined as 67%.
For the compound `O=C(Nc1ccccn1)c1cc(Br)ccc1NS(=O)(=O)c1ccc(OC(F)(F)F)cc1` [Compound 174], the “% Inhib. At 100 μM” value is 84%.
With `O=S(=O)(c1ccc2ccccc2c1)N1CCc2ccccc21` [Compound 155], the “% Inhib. At 100 μM” value stood at 51%.

The test is the same for the next values; noted with them: Table 4, phosphate uptake, read-out: IC50.
In the case of `O=C(NCc1ccccc1)Nc1ccc(Br)cc1P(=O)(O)O` [Compound 201], the IC50 lay in the range of 501 to 1000 µM.
Still for that read-out and setting: in the case of `O=C(Nc1ccccc1-c1ccccc1)Nc1ccc(Br)cc1P(=O)(O)O` [Compound 186] it was 101 to 500 µM.
Regarding `CC(NC(=O)Nc1ccc(Br)cc1P(=O)(O)O)c1cccc2ccccc12` (centres unmarked) [Compound 209], the IC50 is over 1500 µM.
In the case of `O=C(Nc1cc(C(F)(F)F)ccc1F)Nc1ccc(Br)cc1P(=O)(O)O` [Compound 189], the IC50 was 101 to 500 µM.

Staying with this test, now noted: Table 5, 100 μM compound.
As to `O=C(Nc1cccc(C(F)(F)F)c1)Nc1ccccc1Cl` [Compound 223], the “% Inhib. at 100 μM” value was 85%.
On the same count and under the same terms, in the case of `O=C(Nc1cccc(C(F)(F)F)c1)Nc1cccc(C(F)(F)F)c1` [Compound 214] it was 100%; in that of `O=C(Nc1cc(Cl)cc(Cl)c1)Nc1cccc(C(F)(F)F)c1` [Compound 217], 95%.
Still for that read-out and setting: next, `O=C(Nc1cccc(Cl)c1)Nc1cccc(C(F)(F)F)c1` [Compound 219]: 92%.

Staying with this test, now noted: Table 7, phosphate uptake, read-out: IC50.
As to `Cn1nc(-c2ccc(Oc3ccccc3)cc2)cc1-c1ccco1` [Compound 244], the IC50 was over 1500 µM.

Still in this test, the particulars now being: Table 10, phosphate uptake, read-out: IC50.
As to `O=C(Nc1ccc(Oc2ccc(Cl)c3ccccc23)c(Cl)c1)c1cc(Cl)cc(Cl)c1O` [Compound 258], the IC50 was 101 to 500 µM.

The test is the same for the next values; noted with them: Table 13, phosphate uptake, read-out: IC50.
As for `O=[N+]([O-])c1ccc(S(=O)(=O)Nc2ccc(/C=C/c3ccc(NS(=O)(=O)c4ccc([N+](=O)[O-])cc4)cc3S(=O)(=O)O)c(S(=O)(=O)O)c2)cc1` [Compound 294], the half-inhibitory concentration (IC50) lay within 101 to 500 µM.
